Data set [1] in a line: Content of glyburide and arginine dissolved in the filtered supernatant, Example 2. The format is physicochemical. The note with it: 8mg glyburide + 8mg arginine in 10mL water, supersaturated solution at 60℃, 0.45um filter.
For data set [2] the following is noted: 25℃; cited from earlier work.
The conditions of data set [3]: 100mg glyburide (form A) + 36mg arginine in 10mL water, room temperature, stirred overnight, 0.45um filter.

Values after ≈ are worked out from the molar mass of the structure shown. Like-named read-outs stand apart in the source and are kept apart here.

The solubility is the dissolved amount per volume that the medium holds.

Consider `COc1ccc(Cl)cc1C(=O)NCCc1ccc(S(=O)(=O)NC(=O)NC2CCCCC2)cc1` [格列本脲, N-[2-[4-[[[(环己氨基)羰基]氨基]磺酰基]苯基]乙基]-2-甲氧基-5-氯苯甲酰胺], for which the solubility in data set [1] was 800 µg/mL. Besides, the solubility in water in data set [2] is 100 µg/mL (≈ 202 µM).

Take `N=C(N)NCCCC(N)C(=O)O` (stereo not shown) [精氨酸]: the “arginine content in supernatant” value was determined as 0.8 mg/mL in data set [1] and 3.50 mg/mL in data set [3].
